Assay results from ChEMBL document CHEMBL3885881, “DrugMatrix”.

Species on record: Rattus norvegicus
Experiment: DrugMatrix - Regimen: Daily Repeat
Format: toxicity, organism-based, Sprague-Dawley
Design: regimen Daily Repeat, gender Male, age 6-8 weeks
Details: in vivo, po, route oral GAVAGE, vehicle 100 % WATER; for ABSOLUTE BASOPHIL / ABSOLUTE EOSINOPHIL / ABSOLUTE LYMPHOCYTE / ABSOLUTE MONOCYTE / ABSOLUTE SEGMENTED NEUTROPHIL / BASOPHIL / EOSINOPHIL / ERYTHROCYTE COUNT / HEMATOCRIT / HEMOGLOBIN / LEUKOCYTE COUNT / LYMPHOCYTE / MEAN CORPUSCULAR HEMOGLOBIN / MEAN CORPUSCULAR HEMOGLOBIN CONCENTRATION / MEAN CORPUSCULAR VOLUME / MONOCYTE / NEUTROPHIL / NUCLEATED RED BLOOD CELLS / PLATELET COUNT: tissue Blood; for ALANINE AMINOTRANSFERASE / ALBUMIN / ALKALINE PHOSPHATASE / ASPARTATE AMINOTRANSFERASE / BLOOD UREA NITROGEN / CARBON DIOXIDE / CHLORIDE / CHOLESTEROL / CREATINE PHOSPHOKINASE / CREATININE / GLUCOSE / LACTATE DEHYDROGENASE / LIPASE / PHOSPHORUS / POTASSIUM / SODIUM / TOTAL BILIRUBIN / TOTAL PROTEIN / URIC ACID: tissue Plasma
[1] = 27 mg/kg, 120 h, dose level Low, time 5 day
[2] = 54 mg/kg, 72 h, dose level High, time 3 day
[3] = 54 mg/kg, 120 h, dose level High, time 5 day

CNNCc1ccc(C(=O)NC(C)C)cc1 [PROCARBAZINE]
ABSOLUTE BASOPHIL [1]: 0 CELLS/uL
ABSOLUTE EOSINOPHIL [1]: 16.67 CELLS/uL
ABSOLUTE LYMPHOCYTE [1]: 6271.33 CELLS/uL
ABSOLUTE MONOCYTE [1]: 33.33 CELLS/uL
ABSOLUTE SEGMENTED NEUTROPHIL [1]: 112 CELLS/uL
BASOPHIL [1]: 0%
EOSINOPHIL [1]: 0.33%
ERYTHROCYTE COUNT [1]: 5.26 x10E6/uL
HEMATOCRIT [1]: 33.2%
HEMOGLOBIN [1]: 13.37 G/DL
LEUKOCYTE COUNT [1]: 6.43 x10E3/uL
LYMPHOCYTE [1]: 97.33%
MEAN CORPUSCULAR HEMOGLOBIN [1]: 25.4 pg
MEAN CORPUSCULAR HEMOGLOBIN CONCENTRATION [1]: 40.27 G/DL
MEAN CORPUSCULAR VOLUME [1]: 63.07 fL
MONOCYTE [1]: 0.67%
NEUTROPHIL [1]: 1.67%
NUCLEATED RED BLOOD CELLS [1]: 0 /100WBC
PLATELET COUNT [1]: 1312.67 x10E3/uL
ALANINE AMINOTRANSFERASE [1]: 59.67 u/L
ALBUMIN [1]: 4.33 G/DL
ALKALINE PHOSPHATASE [1]: 347 u/L
ASPARTATE AMINOTRANSFERASE [1]: 78.67 u/L
BLOOD UREA NITROGEN [1]: 13.67 mg/dL
CARBON DIOXIDE [1]: 33.67 mmol/L
CHLORIDE [1]: 98 MEQ/L
CHOLESTEROL [1]: 69 mg/dL
CREATINE PHOSPHOKINASE [1]: 304.67 u/L
CREATININE [1]: 0.18 mg/dL
GLUCOSE [1]: 140.67 mg/dL
LACTATE DEHYDROGENASE [1]: 152 u/L
LIPASE [1]: 15.33 u/L
PHOSPHORUS [1]: 9.77 mg/dL
POTASSIUM [1]: 5.23 MEQ/L
SODIUM [1]: 144.95 MEQ/L
TOTAL BILIRUBIN [1]: 0.13 mg/dL
TOTAL PROTEIN [1]: 6.07 G/DL
URIC ACID [1]: 0.77 mg/dL
ABSOLUTE BASOPHIL [2]: 0 CELLS/uL
ABSOLUTE EOSINOPHIL [2]: 27.33 CELLS/uL
ABSOLUTE LYMPHOCYTE [2]: 4383.67 CELLS/uL
ABSOLUTE MONOCYTE [2]: 36 CELLS/uL
ABSOLUTE SEGMENTED NEUTROPHIL [2]: 119.67 CELLS/uL
BASOPHIL [2]: 0%
EOSINOPHIL [2]: 0.67%
ERYTHROCYTE COUNT [2]: 5.22 x10E6/uL
HEMATOCRIT [2]: 33.2%
HEMOGLOBIN [2]: 13 G/DL
LEUKOCYTE COUNT [2]: 4.57 x10E3/uL
LYMPHOCYTE [2]: 96%
MEAN CORPUSCULAR HEMOGLOBIN [2]: 24.93 pg
MEAN CORPUSCULAR HEMOGLOBIN CONCENTRATION [2]: 39.17 G/DL
MEAN CORPUSCULAR VOLUME [2]: 63.7 fL
MONOCYTE [2]: 0.67%
NEUTROPHIL [2]: 2.67%
NUCLEATED RED BLOOD CELLS [2]: 0 /100WBC
PLATELET COUNT [2]: 1130.67 x10E3/uL
ALANINE AMINOTRANSFERASE [2]: 49.67 u/L
ALBUMIN [2]: 4.13 G/DL
ALKALINE PHOSPHATASE [2]: 355.67 u/L
ASPARTATE AMINOTRANSFERASE [2]: 81.67 u/L
BLOOD UREA NITROGEN [2]: 13 mg/dL
CARBON DIOXIDE [2]: 33.67 mmol/L
CHLORIDE [2]: 100 MEQ/L
CHOLESTEROL [2]: 90 mg/dL
CREATINE PHOSPHOKINASE [2]: 291.67 u/L
CREATININE [2]: 0.1 mg/dL
GLUCOSE [2]: 146.67 mg/dL
LACTATE DEHYDROGENASE [2]: 99 u/L
LIPASE [2]: 9 u/L
PHOSPHORUS [2]: 9.63 mg/dL
POTASSIUM [2]: 5.66 MEQ/L
SODIUM [2]: 145.5 MEQ/L
TOTAL BILIRUBIN [2]: 0.1 mg/dL
TOTAL PROTEIN [2]: 6 G/DL
URIC ACID [2]: 0.43 mg/dL
ABSOLUTE BASOPHIL [3]: 0 CELLS/uL
ABSOLUTE EOSINOPHIL [3]: 0 CELLS/uL
ABSOLUTE LYMPHOCYTE [3]: 3873.67 CELLS/uL
ABSOLUTE MONOCYTE [3]: 49.33 CELLS/uL
ABSOLUTE SEGMENTED NEUTROPHIL [3]: 210.33 CELLS/uL
BASOPHIL [3]: 0%
EOSINOPHIL [3]: 0%
ERYTHROCYTE COUNT [3]: 5.43 x10E6/uL
HEMATOCRIT [3]: 33.9%
HEMOGLOBIN [3]: 13.27 G/DL
LEUKOCYTE COUNT [3]: 4.13 x10E3/uL
LYMPHOCYTE [3]: 93.33%
MEAN CORPUSCULAR HEMOGLOBIN [3]: 24.43 pg
MEAN CORPUSCULAR HEMOGLOBIN CONCENTRATION [3]: 39.13 G/DL
MEAN CORPUSCULAR VOLUME [3]: 62.37 fL
MONOCYTE [3]: 1%
NEUTROPHIL [3]: 5.67%
NUCLEATED RED BLOOD CELLS [3]: 0 /100WBC
PLATELET COUNT [3]: 1552.67 x10E3/uL
ALANINE AMINOTRANSFERASE [3]: 57.33 u/L
ALBUMIN [3]: 4.33 G/DL
ALKALINE PHOSPHATASE [3]: 297.33 u/L
ASPARTATE AMINOTRANSFERASE [3]: 75.67 u/L
BLOOD UREA NITROGEN [3]: 15.33 mg/dL
CARBON DIOXIDE [3]: 34 mmol/L
CHLORIDE [3]: 97.67 MEQ/L
CHOLESTEROL [3]: 81 mg/dL
CREATINE PHOSPHOKINASE [3]: 273.67 u/L
CREATININE [3]: 0.13 mg/dL
GLUCOSE [3]: 134.67 mg/dL
LACTATE DEHYDROGENASE [3]: 135.33 u/L
LIPASE [3]: 10 u/L
PHOSPHORUS [3]: 9.93 mg/dL
POTASSIUM [3]: 6 MEQ/L
SODIUM [3]: 143.97 MEQ/L
TOTAL BILIRUBIN [3]: 0.17 mg/dL
TOTAL PROTEIN [3]: 6.13 G/DL
URIC ACID [3]: 0.97 mg/dL
